Values joined by “and” are separate entries in the source; they are usually repeats but may differ in a detail not shown here. Equal entries are not always repeated. Where two headings read alike, the source gives them in different places.
Columns and labels:
fouling = assay: Anti-fouling panel exposure in the ocean at Daytona Beach, rating 0 to 10; settings: for General Rating, 6 Mos. / General Rating, 1 Mo. / General Rating, 4 Mos.: Example 15, Table 7, agent as is
From the text: Test panels were 15.24 cm×30.48 cm (6 in×12 in) in dimension and were constructed of a white plastic top surface and a black plastic bottom surface. The test panels were coated on both sides with the two formulations above-tabulated at a film thickness of about 5 mils dry. The test panels then were exposed horizontally with the white surface upward and the black surface downward in the ocean at Daytona Beach, Fla., U.S.A. A control panel consisted of 12 wt-% triphenyl tin hydroxide dispersed in a resinous vinyl binder (80 wt-parts of a vinyl chloride polymer, VAGH brand, Union Carbide Corporation, New York, N.Y.) reduced in methyl ethyl ketone solvent to 50% solids content. After exposure, the control and test panels were inspected and assigned a numerical rating from 0 to 10 based on the amount of surface area of the panel that was free from fouling, a rating of "10" corresponding to perfect protection. The following results were recorded.

rats or mice = settings: cited from earlier work
rats = settings: oral; cited from earlier work
fish = settings: in words; cited from earlier work
mammalian = settings: in words; cited from earlier work
[1] = SEM / Energy Dispersion Spectroscopy analysis of cured epoxy resin; format: physicochemical; settings: Example 16, Sample 2 (FIG. 2); EDS
From the text: An epoxy resin system was examined for its ability to be modified so as to preferentially influence the concentration or location of an anti-fouling agent (Nopocide N-96, see Example 1) within its structure. A direct comparison was made between an epoxy resin (EPON 828 epoxy resin, diglycidyl ether of bis-phenol A, Shell Chemical Company) and the same epoxy resin containing a domain structuring polymeric material, such as a polysulfide resin (LP-32 polysulfide resin, Thiokol Corporation). Both systems contained the same anti-fouling agent. The compositions formulated are set forth below: […]

[2] = Example 14, Table 6, additive at 20 wt-%
[3] = Example 12, Table 4, additive at 20 wt-%
[4] = listed as 2,3-Dichloro-1,4-Naphthaquinone
[5] = Example 11, Table 3, additive at 20 wt-%, 10 is perfect protection
[6] = Example 10, 20 wt-% in Control Paint, 10 is perfect protection
[7] = Example 13, Table 5, additive at 20 wt-%

## O=C(Nc1cccc2c(NC(=O)n3ccnc3)cccc12)n1ccnc1
fouling; [2]
  Rating After Exposure, 1 Months: 6-7
  Rating After Exposure, 4 Months: 0

## O=C1OC(=O)C2C1C1(Cl)C(Cl)=C(Cl)C2(Cl)C1(Cl)Cl (centres unmarked) [1,4,5,6,7,7-hexachloro-5-norborene-2,3-dicarboxylic anhydride]
fouling; [3]
  Rating After Exposure, 4 Months: 0

## O=C1C(Cl)=C(Cl)C(=O)c2ccccc21 [2,3-dichloro-1,4-napthoquinone]
fouling
  General Rating, 6 Mos.: 0
fouling; [4]
  General Rating, 1 Mo.: 7 and 5
  General Rating, 4 Mos.: 6 and 3

## Nc1cc(Cl)ccc1Cl [2,5-Dichloroaniline]
fouling; [5]
  Rating After Exposure, 4 Months: 0
  Rating After Exposure, 462 Days: 0

## Nc1cc(Cl)cc(C(=O)O)c1Cl [2,5-dichloro,3-amino benzoic acid]
Rats or mice; in vivo, po
  LD50 value: 5,620

## Nc1c(Cl)cc([N+](=O)[O-])cc1Cl [2,-6-dichloro, 4-nitroaniline]
fouling; [5]
  Rating After Exposure, 4 Months: 0
  Rating After Exposure, 462 Days: 0

## C=C(Cl)CSC(=S)N(CC)CC [2-chloro-2-propenyl diethylcarbamodithioate]
Rats or mice; in vivo, po
  LD50 value: 850

## C=CCN(CC=C)C(=O)CCl [2-chloro-N,N-diallylacetamide]
rats
  LD50 value: 700 mg/kg
Rats or mice; species not given, in mg/kg
  LD50 value: 750
fouling
  General Rating, 1 Mo.: 5
  General Rating, 4 Mos.: 4
  General Rating, 6 Mos.: 0

## CCNc1nc(Cl)nc(NC(C)C)n1 [2-isopropylamino-4-chloro-6-ethylamino triazine]
rats
  LD50 value: 1869 mg/kg

## Nc1ccc(Cl)c(Cl)c1 [3,4-Dichloroaniline]
fouling; [5]
  Rating After Exposure, 4 Months: 0
  Rating After Exposure, 462 Days: 0

## CN(C)C(=O)Nc1ccc(Cl)c(Cl)c1 [3-(3,4-Dichlorophenyl)-1,1-dimethyl urea]
fouling; [2]
  Rating After Exposure, 1 Months: 9
  Rating After Exposure, 4 Months: 0

## C=CCc1ccc(O)c(OC)c1 [Eugenol, 4-allyl-2-methoxyphenol]
rats
  LD50 value: 2,000 mg/kg
fouling
  General Rating, 1 Mo.: 9 and 7
  General Rating, 4 Mos.: 3
  General Rating, 6 Mos.: 0

## N#Cc1c(Cl)c(Cl)c(Cl)c(Cl)c1C#N [Nopocide, 1,2-dicyano, tetrachlorobenzene]
fouling; [6]
  Rating After Exposure, 4 Months: 0
  Rating After Exposure, 462 Days: 0

## c1ccc2c(c1)Nc1ccccc1S2 [Phenothiazine]
fouling; [3]
  Rating After Exposure, 4 Months: 0

## C#CC(C)(C)NC(=O)c1cc(Cl)cc(Cl)c1 [Pronamide, 3,5-dichloro-N-(3,3-dimethylpropyne)benzamide]
fouling; [7]
  Rating After Exposure, 1 Months: 0
  Rating After Exposure, 4 Months: 0

## C=CCC1=C(C)C(OC(=O)C2C(C=C(C)C)C2(C)C)CC1=O (centres unmarked) [allyl, methylhydroxy substituted cyclopententone ester of dimethylpropenyl cyclopropane carboxylic acid]
Rats or mice; species not given, in mg/kg
  LD50 value: 1,000

## Nc1cnn(-c2ccccc2)c(=O)c1Cl [amino, chloro, phenyl derivative of azacyclohexamine]
Rats or mice; species not given, in mg/kg
  LD50 value: 3,030

## O=C(O)CNCP(=O)(O)O [aminoacetic acid derivative of methylphosphonate]
Rats or mice; species not given, in mg/kg
  LD50 value: 4,300

## OB(O)O [boric acid]
rats
  LD50 value: 3,000 mg/kg
fouling; in words
  anti-fouling activity: quite active as an anti-fouling agent

## CCCCCCCCCCCCCCCC[n+]1ccccc1 [cetylpyridinium chloride]
rats
  LD50 value: 200 mg/kg

## CCCCCCCCCCCCCCCC[N+](C)(C)C.[Br-] [cetyltrimethylammonium bromide]
rats
  LD50 value: 500 mg/kg

## C=CCC1=C(C)C(OC(=O)[C@@H]2[C@@H](C=C(C)C)C2(C)C)CC1=O (stereo partly drawn) [d-Trans-Allerthrin]
fouling; [7]
  Rating After Exposure, 1 Months: 0-1
  Rating After Exposure, 4 Months: 0

## COP(=S)(OC)Oc1ccc(Sc2ccc(OP(=S)(OC)OC)cc2)cc1 [dimethoxythiophosphate derivative of diphenyl sulfide]
rats
  LD50 value: 2030 mg/kg

## C#CCOS(=O)OC1CCCCC1Oc1ccc(C(C)(C)C)cc1 (centres unmarked) [dimethylethylphenoxy-cyclohexyl-2-propynyl sulfite]
Rats or mice; species not given, in mg/kg
  LD50 value: 2,200

## CC(C)C(C(=O)OC(C#N)c1cccc(Oc2ccccc2)c1)c1ccc(Cl)cc1 (centres unmarked) [diphenyl ether, chlorophenyl derivative of the isobutyric acid ester of hydroxyacetonitrile]
fish
  toxicity to fish: toxic to fish
Rats or mice; in vivo, po
  LD50 value: 451

## c1ccc(Nc2ccccc2)cc1 [diphenylamine]
mammalian
  mammalian toxicity: Low mammalian toxicity
fouling
  General Rating, 1 Mo.: 5
  General Rating, 6 Mos.: 0
fouling; listed as Diphenylanaline
  General Rating, 4 Mos.: 4 and 3

## CCCCCCCCCCCCNC(=N)N [dodecylguanidine monoacetate]
Rats or mice; species not given, in mg/kg
  LD50 value: 1,000

## CCOC(=O)C(O)(c1ccc(Cl)cc1)c1ccc(Cl)cc1 [ethyl 4-chloro-alpha(4-chlorophenyl)alpha-hydroxy benzene acetate]
rats
  LD50 value: 5,000 mg/kg

## Oc1c(Cl)cc(Cl)c(Cl)c1Cc1c(O)c(Cl)cc(Cl)c1Cl [hexachlorophene]
[1]
  chlorine concentration in round island domains: 48%
  chlorine concentration in sea-like domains: 36%

## CCN(CC)c1nc(C)cc(OP(=S)(OC)OC)n1 [methyl, diethylamino, dimethoxythiophosphate derivative of pyrimidine]
rats
  LD50 value: 2,000 mg/kg

## NC(=O)Cc1cccc2ccccc12 [napthalene acetamide]
Rats or mice; in vivo, po
  LD50 value: 1,000

## Oc1ccccc1-c1ccccc1 [o-phenylphenol]
Rats or mice; species not given, in mg/kg
  LD50 value: 2,700

## O=C(O)Cc1c(Cl)ccc(Cl)c1Cl [trichlorophenyl acetic acid]
Rats or mice; species not given, in mg/kg
  LD50 value: 1,780

— patent publication US5441743A, “Marine compositions bearing preferentially concentrated domains of non-tin, organo anti-fouling agents” (priority 1993, dated 1995)
